{
  "source": "paper PMC4433633",
  "about": "“A Heparan Sulfate-Binding Cell Penetrating Peptide for Tumor Targeting and Migration Inhibition” (BioMed Research International, 2015)",
  "origin": "cited, not measured here",
  "conditions": "ref [56]",
  "description": "Although CPPs as noninvasive agents have promising biomedical potential for molecular delivery, they are mostly unfeasible for in vivo researches due to nonspecificity of their highly cationic characteristic such as TAT peptide. Due to high uptake rates in vitro and relatively low specificity in vivo of most CPPs, conventional CPPs would be designed for topical applications in CPP-based delivery (Table 1). […] Although TAT peptide (46–57) de ...",
  "data": [
    {"sequence": "SYGRKKRRQRRR [TAT peptide (46–57), multifunctional CPP […]]", "values": [
      {"measurement": "target specificity in vivo", "result": "low target specificity in vivo"}
    ]}
  ]
}
